Laboratory results published in ChEMBL document CHEMBL1125804, “Antitumor agents. 120. New 4-substituted benzylamine and benzyl ether derivatives of 4'-O-demethylepipodophyllotoxin as potent inhibitors of human DNA topoisomerase II” (1991).

Key:
[1] = 50% reduction in KB cell number after a 3-day incubation.; type: functional; settings: Homo sapiens, 72 h, read-out: ID50 (the source's name)
[2] = molecular target: DNA topoisomerase II (Homo sapiens) (UniProt P11388+Q02880); assay: Inhibition of human DNA topoisomerase II; type: protein assay
Nucleic Acid [3] = assay: % complex formation of cellular protein -DNA complex at a concentration of 10 uM; type: functional; settings: Homo sapiens
Nucleic Acid [4] = assay: Compound was tested for the % complex formation of cellular protein -DNA complex at a concentration of 10 uM; type: functional; settings: Homo sapiens
[5] = Compound was tested for the concentration to afford 50% reduction in KB cell number after a 3-day incubation; type: functional; settings: Homo sapiens, 72 h, read-out: ID50 (the source's name)

Structure (SMILES) | IC50 [1] [nM] | ID50 [2] [nM] | Complex formation (Nucleic Acid [3]) [%] | Complex formation (Nucleic Acid [4]) [%] | IC50 [5] [nM]
COc1cc([C@@H]2c3cc4c(cc3[C@@H](NCc3cccc([N+](=O)[O-])c3)[C@H]3COC(=O)[C@H]23)OCO4)cc(OC)c1O | < 400 | 25000 | 130 | – | –
COc1cc([C@@H]2c3cc4c(cc3[C@@H](NCc3ccc(C#N)cc3)[C@H]3COC(=O)[C@H]23)OCO4)cc(OC)c1O | < 400 | 25000 | 284 | – | –
COc1cc([C@@H]2c3cc4c(cc3[C@@H](Nc3ccc(F)cc3)[C@H]3COC(=O)[C@H]23)OCO4)cc(OC)c1O | 240 | – | 213 | – | –
COc1cc([C@@H]2c3cc4c(cc3[C@@H](NCc3ccc(F)cc3)[C@H]3COC(=O)[C@H]23)OCO4)cc(OC)c1O | > 4000 | 50000 | 169 | – | –
COc1cc([C@@H]2c3cc4c(cc3[C@@H](NCc3ccccc3N)[C@H]3COC(=O)[C@H]23)OCO4)cc(OC)c1O | < 400 | 25000 | 184 | – | –
COc1cc([C@@H]2c3cc4c(cc3[C@@H](NCc3cccc(N)c3)[C@H]3COC(=O)[C@H]23)OCO4)cc(OC)c1O | < 400 | 25000 | 191 | – | –
COc1cc([C@@H]2c3cc4c(cc3[C@@H](NCc3ccc(C(F)(F)F)cc3)[C@H]3COC(=O)[C@H]23)OCO4)cc(OC)c1O | 2300 | 100000 | 99 | – | –
COc1cc([C@@H]2c3cc4c(cc3[C@@H](NCc3cccc(C#N)c3)[C@H]3COC(=O)[C@H]23)OCO4)cc(OC)c1O | < 400 | 25000 | 225 | – | –
COc1cc([C@@H]2c3cc4c(cc3[C@@H](OCc3ccc([N+](=O)[O-])cc3)[C@H]3COC(=O)[C@H]23)OCO4)cc(OC)c1O | 1900 | > 100000 | < 25 | – | –
COc1cc([C@@H]2c3cc4c(cc3[C@@H](OCc3ccccc3)[C@H]3COC(=O)[C@H]23)OCO4)cc(OC)c1O | 2400 | > 100000 | < 25 | – | –
COc1cc([C@@H]2c3cc4c(cc3[C@@H](NCc3ccccc3[N+](=O)[O-])[C@H]3COC(=O)[C@H]23)OCO4)cc(OC)c1O | 1800 | 50000 | 144 | – | –
COc1cc([C@@H]2c3cc4c(cc3[C@@H](O[C@@H]3O[C@@H]5CO[C@@H](C)O[C@H]5[C@H](O)[C@H]3O)[C@H]3COC(=O)[C@H]23)OCO4)cc(OC)c1O [ETOPOSIDE] | 200 | – | – | 100 | –
COc1cc([C@@H]2c3cc4c(cc3[C@@H](NCc3ccc([N+](=O)[O-])cc3)[C@H]3COC(=O)[C@H]23)OCO4)cc(OC)c1O | 400 | 50000 | 216 | – | –
COc1cc([C@@H]2c3cc4c(cc3[C@@H](Nc3ccc([N+](=O)[O-])cc3)[C@H]3COC(=O)[C@H]23)OCO4)cc(OC)c1O | – | – | – | 323 | 490
COc1cc(CN[C@@H]2c3cc4c(cc3[C@@H](c3cc(OC)c(O)c(OC)c3)[C@H]3C(=O)OC[C@@H]32)OCO4)cc(OC)c1 | 1700 | 100000 | 144 | – | –
COc1cc([C@@H]2c3cc4c(cc3[C@@H](NCc3ccccc3F)[C@H]3COC(=O)[C@H]23)OCO4)cc(OC)c1O | 1900 | 100000 | 126 | – | –
COc1cc([C@@H]2c3cc4c(cc3[C@@H](NCc3cccc(F)c3)[C@H]3COC(=O)[C@H]23)OCO4)cc(OC)c1O | 3000 | 25000 | 216 | – | –
COc1cc([C@@H]2c3cc4c(cc3[C@@H](NCc3cccc(Cl)c3)[C@H]3COC(=O)[C@H]23)OCO4)cc(OC)c1O | 1200 | 50000 | 159 | – | –
COc1cc([C@@H]2c3cc4c(cc3[C@@H](Nc3ccc(N)cc3)[C@H]3COC(=O)[C@H]23)OCO4)cc(OC)c1O | 800 | – | 330 | – | –
COc1cc([C@@H]2c3cc4c(cc3[C@@H](NCc3ccccc3)[C@H]3COC(=O)[C@H]23)OCO4)cc(OC)c1O | 2200 | 25000 | 181 | – | –
